Laboratory results as given in patent US20250017948A1, “CANNABINOID COMPOSITIONS FOR GASTROESOPHAGEAL DISORDERS” (THE UNITED STATES GOVERNMENT AS REPRESENTED BY THE …, priority 2021, published 2025).

Legend:
Format in all cases: cell-based, human
HET1a = conditions: for effect on DCA-induced mitochondrial membrane depolarization: treated prior to and during DCA exposure, FIG. 1C-1D, combination at 1:5
Method: MitoProbe JC-1 Assay Kit for Flow Cytometry (cat #M34152, ThermoFisher, Massachusetts, USA) was used to measure the mitochondrial membrane potential. Depending on the experimental group, cells were pre-treated with the CBG/Phytol admixture or DMSO and incubated for 2 hours at 37° C. in a CO2 incubator. Cells were then treated with DCA with the CBG/Phytol admixture or DMSO. After treatment, cell were loaded with 2 μM of JC-1 and incubated for 15 minutes at 37° C. Cytoplasmic JC-1 monomers were detected in the green spectrum (˜529 nm) while mitochondrial J-aggregates were detected in the red spectrum (˜590 nm). Results are representative of 2 and 3 independent repeats per cell line.
These concentrations of DCA are found in esophageal aspirates of patients with GERD.
Various ratios of the combination of CBG and phytol were explored to assess DCA-induced mitochondrial membrane depolarization.

HET1A cells [1] = assay: Muse Multi-Color DNA Damage kit (ATM and H2AX activation); conditions: preliminary screen, FIG. 1B; cannabinoid:terpene 1:5, with DCA
Method: The activation of ATM and H2AX (a marker of DNA breaks) was measured using the Muse Multi-Color DNA Damage kit (MilliporeSigma, Burlington, MA, USA) according to the manufacturer's instructions. The percentage of ATM activated cells and H2AX activated cells was determined as dual activation by monitoring expression of both the ATM and γ-H2AX, using the Muse Cell Analyzer (MilliporeSigma, Burlington, MA, USA). Expression of γ-H2AX was determined by flow cytometry on an Accuri C6 flow cytometer following manufacturer protocol (MilliporeSigma, Burlington, MA, USA).
Combinations of terpenes and cannabinoids were introduced to assess the effect on DNA damage using the Muse Multicolor DNA Damage Kit (see methods for details). Based on a preliminary screen shown in FIG. 1B, it was concluded that DCA induced the highest proportion of DNA damage, along with the addition of […] (THC) containing groups, >5% vs. an untreated group.

HET1A cells [2] = assay: Cell viability via XTT assay; conditions: DCA for 24 hours, then fresh media; FIG. 4A
Method: Cells were cultured prior to exposure to the indicated test articles. After treatment, as indicated, cells were washed and resuspended in a phenol red-free RPMI or DMEM and subsequently treated with the XTT assay (ThermoFisher, Waltham, MA, USA) or the MTS assay (Promega, Madison, WI, USA) following manufacturer protocols.
In this example, the role of CBG and Phytol on hallmarks of apoptosis resistance is described. […] Cells were pretreated with or without CBG/Phytol and then treated with DCA or a vehicle control for 24 hours. On the following day, the cells were incubated with fresh media, without DCA, and with or without CBG and/or Phytol. Cell viability was determined via XTT assay.

HET1A cells [3] = assay: Genomic instability: new copy number events on PMDA arrays; conditions: daily treatment 14 days; DCA 100 μM; CBG/Phytol 1:5; baseline Day 0 genome
Method: The impact of phytocannabinoids on acquisition of new genomic changes over time in human esophageal cells was assessed using Axiom™ Precision Medicine Diversity Arrays (PMDA; Affymetrix). HET1a cells, plated in T-150 flasks at a seeding density of 2,500 cells per cm^2, were divided into 4 experimental groups (n=2 each): (i) DMSO-treated controls, (ii) treated with 100 μM of DCA alone, (iii) treated with CBG/Phytol admixture alone, and (iv) treated with 100 μM of DCA and CBG/Phytol admixture. DCA and/or CBG/Phytol were freshly prepared daily by dissolving in DMSO and then added to the media. These cells were cultured for 14 consecutive days. […]
Based on the examples above, it was hypothesized that increased stress-induced apoptosis along with reduced DNA damage and mitochondrial disruption may be concordant to reduced genomic instability. […] DNA from cultured and Day 0 cells was extracted and analyzed using PMDA arrays (Affymetrix). Genomic instability in cultured cells was assessed by identifying new copy number events (both deletions and amplifications), using genome of “Day 0” cells as baseline. […] Compared to control cells, DCA induced a marked (>6-fold) increase in genomic instability, as assessed from the acquisition of new copy number events over a period of […]. […]

[4] = system: CP-A Barrett's esophagus cells; assay: ROS by CM-DCFDA fluorescence after low pH and bile acid cocktail (GER); conditions: FIG. 6F
Method: The cannabinoids referenced in the following examples were purchased from Cayman Chemical and brought up to a stock concentration of 100 mM in DMSO. Terpenes were purchased from Sigma Aldrich. Bile acid cocktail consisted of an equimolar mixture of glycocholate, taurocholate, glycodeoxycholate, glycochenodeoxycholate, and deoxycholate at a final concentration of 0.2 mM. This cocktail reflects the mixture of bile acids to which the distal esophagus is ordinarily exposed during gastroesophageal reflux
Combinations of cannabinoids/terpenes were tested to determine whether they protected cells in the esophagus following acute exposure to a low pH environment (pH4.5) combined with a bile acid cocktail comprised of multiple physiologically-relevant secondary bile acids, which mimics the caustic environment during gastroesophageal reflux (GER). […] The cells were either immediately analyzed for ROS via fluorescent detection of CM-DCFDA or recovered for 24 hours and analyzed for DNA damage, via γ-H2AX. […] Furthermore, the combination of CBG and β-caryophyllene was tested in the residual cells and harvested 24 h post-treatment for assessment of DNA damage to obtain the γ-H2AX fluorescence plots in FIG. 6E. […]

## CCCCCc1cc(O)c(C/C=C(\C)CCC=C(C)C)c(O)c1 [CBG, cannabigerol]
HET1a
  effect on DCA-induced mitochondrial membrane depolarization: not reproduced by either compound alone in a statistically significant manner

## C[C@H](CCC(=O)O)[C@H]1CC[C@H]2[C@@H]3CC[C@@H]4C[C@H](O)CC[C@]4(C)[C@H]3C[C@H](O)[C@]12C [DCA, deoxycholic acid]
HET1a; acute exposure to DCA, JC-1 red/green
  dose sufficient to induce membrane polarization: 100 µM
HET1a; human
  dosing that induced severe mitochondrial membrane depolarization and cellular apoptosis: above 300 μM
HET1A cells [1]
  proportion of DNA damage (% ATM and H2AX positive cells) vs. an untreated group: > 5%
HET1A cells [2]
  number of cells after DCA alone: significant reduction in number of cells by 48 hours
HET1A cells [3]
  increase in genomic instability (new copy number events) compared to control cells: > 6 fold

## C[C@H](CCC(=O)O)[C@H]1CC[C@H]2[C@@H]3[C@@H](O)C[C@@H]4C[C@H](O)CC[C@]4(C)[C@H]3CC[C@]12C [UDCA, ursodeoxycholic acid]
[4]
  mitigation of the oxidative insult of GER (CM-DCFDA fluorescence), comparison with catalase and UDCA: protective effect

## C/C(=C\CO)CCC[C@H](C)CCC[C@H](C)CCCC(C)C [phytol]
HET1a
  effect on DCA-induced mitochondrial membrane depolarization: not reproduced by either compound alone in a statistically significant manner
